Series [1] is described as follows: Cytotoxicity against Sprague-Dawley rat primary cerebellar granule neurons assessed as reduction in cell viability measured after 48 hrs by MTT assay. The note with it: read-out: LC50. In kind it is tissue-based, Cerebellar granule neurone. For orientation: Tetrazolium dyes change colour on reduction, which living cells bring about.
The nature of series [2]: (§1) Neuroprotective activity against H2O2-induced neuronal death in Sprague-Dawley rat primary cerebellar granule neurons assessed as increase in cell viability preincubated for 24 hrs followed by H2O2 addition and measured after 24 hrs by MTT assay. The class given is functional, Cerebellar granule neurone. As to conditions: time 48 hrs.
The nature of series [3]: Neuroprotective activity against H2O2-induced neuronal death in Sprague-Dawley rat primary cerebellar granule neurons assessed as increase in cell viability preincubated for 24 hrs followed by H2O2 addition and measured after 24 hrs by MTT assay relative to control. The note with it: time 48 hrs. The class given is functional, Cerebellar granule neurone.
For series [4], the system named is Cerebellar granule neurone. The series is described as follows: Neuroprotective activity against H2O2-induced neuronal death in Sprague-Dawley rat primary cerebellar granule neurons assessed as increase in cell viability at 0.5 to 10 uM preincubated for 24 hrs followed by H2O2 addition and measured after 24 hrs by MTT assay. In kind it is functional, tissue-based. As to conditions: dose 0.5-10 µM, time 48.0 hrs.

For series [5], the system named is Cerebellar granule neurone. The series is described as follows: Neuroprotective activity against H2O2-induced neuronal death in Sprague-Dawley rat primary cerebellar granule neurons assessed as reduction in nuclear condensation at 0.5 to 300 uM preincubated for 24 hrs followed by H2O2 addition and measured after 24 hrs by Hoechst 33258 staining based confocal immunofluorescence microscopic analysis. In kind it is functional, tissue-based. The note with it: dose 0.5-300 µM, time 48.0 hrs.

In series [6] the test system is Cerebellar granule neurone. The series is described as follows: Neuroprotective activity against H2O2-induced neuronal death in Sprague-Dawley rat primary cerebellar granule neurons assessed as reduction in […] fragmentation at 0.5 to 300 uM preincubated for 24 hrs followed by H2O2 addition and measured after 24 hrs by Hoechst 33258 staining based confocal immunofluorescence microscopic analysis. The class given is functional, tissue-based. The note with it: dose 0.5-300 µM, time 48.0 hrs.

A short description of series [7]: Cytotoxicity against […] cells assessed as reduction in cell viability measured after 24 hrs by neutral red staining based spectrophotometric method. As to conditions: read-out: LC50.
Series [8] is described as follows: Neuroprotective activity against H2O2-induced cell death in […] cells at 0.5 uM preincubated for 24 hrs followed by H2O2 addition and measured after 24 hrs by neutral red staining based spectrophotometric method relative to control. In kind it is functional. The note with it: time 48 hrs.
Series [9] concerns the target T1, Acetylcholinesterase (Homo sapiens, UniProt P22303). The series is described as follows: Inhibition of human erythrocytes AChE using acetylthiocholine iodide as substrate measured after 30 mins by Ellman's method. (Ellman's reagent forms a yellow product with free thiols.)
Series [10] deals with Cerebellar granule neurone. Described as §1. In kind it is functional. As to conditions: time 48.0 hrs.
Series [11] concerns the target T1, Acetylcholinesterase. The series is described as follows: Potency index, ratio of physostigmine IC50 to test compound IC50 for human erythrocytes AChE.
Series [12] concerns Cerebellar granule neurone. The series is described as follows: Neuroprotective activity against H2O2-induced neuronal death in Sprague-Dawley rat primary cerebellar granule neurons assessed as increase in cell viability at 0.5 to 300 uM preincubated for 24 hrs followed by H2O2 addition and measured after 24 hrs by MTT assay. The note with it: dose 0.5-300 µM, time 48.0 hrs. The class given is functional, tissue-based.

The source made the active and inactive calls. The rule behind the calls is not given here. Bounds are passed on as bounds.

One may read the IC50 as the concentration that inhibits the measured activity by half. Low values mean greater potency in that assay, high ones weaker potency in that assay.

T1 sequence (P22303 whole entry): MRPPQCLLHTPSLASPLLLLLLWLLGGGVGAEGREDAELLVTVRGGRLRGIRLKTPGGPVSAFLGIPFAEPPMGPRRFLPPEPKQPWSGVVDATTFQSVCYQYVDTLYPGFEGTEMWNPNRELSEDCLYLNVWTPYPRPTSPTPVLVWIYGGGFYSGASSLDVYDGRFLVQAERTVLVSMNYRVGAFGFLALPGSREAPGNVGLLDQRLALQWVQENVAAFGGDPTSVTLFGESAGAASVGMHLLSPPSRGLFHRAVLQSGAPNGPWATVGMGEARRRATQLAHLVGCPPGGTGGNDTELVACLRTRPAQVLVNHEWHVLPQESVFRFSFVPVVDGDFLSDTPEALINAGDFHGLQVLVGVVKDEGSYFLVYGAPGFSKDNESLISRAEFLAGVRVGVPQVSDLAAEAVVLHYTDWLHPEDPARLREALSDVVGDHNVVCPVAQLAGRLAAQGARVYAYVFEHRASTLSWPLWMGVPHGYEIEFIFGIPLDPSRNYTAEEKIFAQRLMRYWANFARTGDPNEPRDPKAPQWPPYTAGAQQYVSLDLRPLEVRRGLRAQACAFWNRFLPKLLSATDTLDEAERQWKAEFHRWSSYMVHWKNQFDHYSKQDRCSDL

With `C=CC(C)(C)c1cc([C@@H]2CC(=O)c3c(O)cc(O)c(CC=C(C)C)c3O2)c(O)cc1O`, the CC50 at 48 h in series [1] was determined as 12.5 µM. Also, the EC in series [2] amounted to 5 µM. Further, the “%max” value in series [3] worked out at 16.37%. For the same compound, the result in series [4] was inactive. For the same compound, the outcome in series [5] and in series [6] was Active. Moreover, the CC50 at 24 h in series [7] was 13 µM. This compound also had an Activity in series [8] of 51.76%. On Acetylcholinesterase [9], half-maximal inhibition (IC50) was put at 29 µM.
As for `C=CC(C)(C)c1cc([C@@H]2CC(=O)c3c(O)cc(O)c(CC=C(C)C)c3O2)c(OC)cc1O`, the CC50 at 48 h in series [1] was above 300 µM. Also, the EC in series [2] came to 200 µM. The Activity entry in series [10] is “Dose-dependent effect”. In addition, the “%max” value in [3] was 22.3%.
Take `CC(C)=CCc1c(O)cc(O)c2c1O[C@H](c1ccccc1)CC2=O` [GLABRANIN]: in [1], the CC50 at 48 h was determined as 44.5 µM. Further, the EC in series [2] worked out at 10 µM. Besides, in series [3], the “%max” value is on record as 20.34%. Besides, the result in series [4] was inactive. The result in series [5] and in series [6] was Active. For the same compound, in series [7], the CC50 at 24 h is 27.3 µM. The compound also had an Activity in [8] of 31.32%. Half-maximal inhibition against Acetylcholinesterase [9] (IC50) was put at 0.0064 µM. Besides, at Acetylcholinesterase [11], the Ratio IC50 is 12.
For `CC(C)=CCc1c(O)cc2c(c1O)C(=O)C[C@@H](c1ccc(O)c(O)c1CC=C(C)C)O2`, the CC50 at 48 h in [1] was above 300 µM. For the same compound, the outcome in series [12] was inactive.
For `O=C1C[C@@H](c2ccccc2)Oc2cc(O)cc(O)c21` [PINOCEMBRIN] the same measures were 247 µM and “inactive”.
For `C=CC(C)(C)c1cc([C@@H]2CC(=O)c3c(cc(O)c(CC=C(C)C)c3O)O2)c(OC)cc1O` the same measures were 40.7 µM and “inactive”.
